Measurements published in the NIST ThermoML archive (doi:10.1016/j.fluid.2005.12.016).

Assay: osmotic coefficient (dimensionless); mn = molality of the nth substance listed, in mol/kg
Settings: 298.15 K, 101 kPa, Liquid, isopiestic method

OC[C@@H](O)[C@@H](O)CO [meso-1,2,3,4-butanetetrol] + O
Settings	osmotic coefficient
m1 = 0.2173	1.0019
m1 = 0.2196	1.0019
m1 = 0.5657	1.011
m1 = 0.5662	1.011
m1 = 0.7365	1.014
m1 = 0.74	1.014
m1 = 0.9458	1.017
m1 = 1.113	1.019
m1 = 1.114	1.019

CC(O)CCO (stereo not given) [1,3-butanediol] + O
Settings	osmotic coefficient
m1 = 0.2289	0.9766
m1 = 0.7849	0.9509
m1 = 1.051	0.9416
m1 = 2.968	0.9042
m1 = 2.969	0.9042
m1 = 4.186	0.8953
m1 = 4.197	0.8953

OCCCCO [1,4-butanediol] + O
Settings	osmotic coefficient
m1 = 0.2252	0.977
m1 = 0.778	0.9474
m1 = 0.7931	0.9467
m1 = 1.054	0.9349
m1 = 2.148	0.892
m1 = 2.158	0.8916
m1 = 3.12	0.8619
m1 = 4.499	0.8341
m1 = 4.501	0.8341

OCCC(O)CO (stereo not given) [1,2,4-butanetriol] + O
Settings	osmotic coefficient
m1 = 0.7526	0.9857
m1 = 1.34	0.9912
m1 = 1.929	0.9968
m1 = 2.745	1.0059
m1 = 2.8	1.0065
m1 = 3.691	1.019
m1 = 5.916	1.062

CC(O)C(C)O (stereo not given) [2,3-butanediol] + O
Settings	osmotic coefficient
m1 = 0.6071	0.9429
m1 = 0.8087	0.9359
m1 = 1.995	0.913
m1 = 2.96	0.9043

CCC(O)CO (stereo not given) [1,2-butanediol] + O
Settings	osmotic coefficient
m1 = 0.2302	0.9585
m1 = 0.803	0.9286
m1 = 0.8128	0.9282
m1 = 1.046	0.9205
m1 = 1.056	0.9202
m1 = 2.093	0.8967
m1 = 3.038	0.8831
m1 = 3.044	0.8831
m1 = 4.304	0.8709
